Patent US9023789B2, “Amylin analogs and pharmaceutical compositions thereof” (Novo Nordisk A/S, priority 2012, dated 2015)
Numbered stars: 1 amine (or outer) side, 2 acyl side, 3 side chain; on linkers, the order of the positions; unused ones are H or OH. Bridge positions count the residues as written; N and C are the ends. Side chains are listed from the residue outwards. Peptide text beside a SMILES is read from it. * marks the point of attachment. C20 diacid = O=C(O)CCCCCCCCCCCCCCCCCCC(=O)*; γGlu = O=C(O)[C@H](CCC(=O)[*:2])N[*:1]

How the values were obtained:
[1] = target: T1, human amylin 3(a) receptor (human calcitonin receptor + RAMP-3) in BHK570 cells (Homo sapiens, UniProt O60896+P30988); test: ASSAY (II)a functional assay, human amylin receptor (CRE luciferase); format: cell-based
T1 construct: expressed in transfected cells
How it was run: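 Functional agonism was measured by CRE-luciferase reporter luminescence in BHK cells bearing calcitonin receptor, or calcitonin receptor plus RAMP-3 as the amylin 3(a) receptor. Stimulation lasted 3 hours at 37° C.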

[2] = target: T2, human calcitonin (a) receptor in BHK570 cells (Homo sapiens, UniProt P30988); test: ASSAY (II)a functional assay, human calcitonin receptor (CRE luciferase); format: cell-based; settings: read-out: hCTR funct. EC50
T2 construct: expressed in transfected cells
T2 sequence (P30988 25-474): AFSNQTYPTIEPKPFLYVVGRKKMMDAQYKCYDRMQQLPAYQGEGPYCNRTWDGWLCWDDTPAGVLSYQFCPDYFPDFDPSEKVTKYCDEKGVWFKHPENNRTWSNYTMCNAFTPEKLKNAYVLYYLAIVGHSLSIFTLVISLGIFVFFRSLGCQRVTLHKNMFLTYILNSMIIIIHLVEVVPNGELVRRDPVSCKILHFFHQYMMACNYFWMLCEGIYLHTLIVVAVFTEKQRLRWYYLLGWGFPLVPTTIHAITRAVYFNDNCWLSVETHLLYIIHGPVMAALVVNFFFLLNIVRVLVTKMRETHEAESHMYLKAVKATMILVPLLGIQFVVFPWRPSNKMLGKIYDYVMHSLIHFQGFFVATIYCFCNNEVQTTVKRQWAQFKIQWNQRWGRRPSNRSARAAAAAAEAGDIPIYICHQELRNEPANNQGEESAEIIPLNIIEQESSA
Text: 1. Luciferase Assay Outline
Activation of calcitonin and amylin (coexpression of calcitonin receptor and receptor activity modifying proteins (RAMP)) receptors lead to increased intracellular concentrations of cAMP. Consequently, transcription is activated by promoters containing multiple copies of the cAMP response element (CRE). It is thus possible to measure amylin activity by the use of a CRE luciferase reporter gene introduced into BHK cells also expressing calcitonin or amylin receptors.
2. Construction of Calcitonin (a)- and Amylin 3(a)-Receptor/CRE-Luc Cell Line.
The cell line was further transfected with RAMP-3, using standard methods. This turns the calcitonin receptor into an amylin 3(a) receptor. Methotrexate, Neomycin, and Hygromycin are selection markers for luciferase, the calcitonin receptor, and RAMP-3, respectively.
To perform activity assays, BHK calcitonin (a) receptor- or amylin 3(a)-receptor/CRE-luc cells were seeded in white 96 well culture plates at a density of about 20.000 cells/well. […] After incubation overnight at 37° C. and 5% CO2, the growth medium was replaced by 50 μl/well assay medium (DMEM (without phenol red), Glutamax™, 10% FBS, and 10 mM Hepes, pH 7.4). Further, 50 μl/well of standard or sample in assay buffer were added. After 3 hours incubation at 37° C. and 5% CO2, the assay medium with standard or sample were removed and replaced by 100 μl/well PBS. Further, 100 μl/well LucLite™ was added. The plates were sealed and incubated at room temperature for 30 minutes. Finally, luminescence was measured on a TopCounter (Packard) in SPC (single photon counting) mode.

[3] = ASSAY (III) ThT fibrillation assay for physical stability; format: physicochemical
Text: Assay (III)—ThT Fibrillation Assays for the Assessment of Physical Stability of Protein Formulations Low physical stability of a polypeptide may lead to amyloid fibril formation, which is observed as well-ordered, thread-like macromolecular structures in the sample eventually resulting in gel formation. This has traditionally been measured by visual inspection of the sample. However, that kind of measurement is very subjective and depending on the observer. Therefore, the application of a small molecule indicator probe is much more advantageous. Thioflavin T (ThT) is such a probe and has a distinct fluorescence signature when binding to fibrils [Naiki et al. (1989) Anal. […] LeVine (1999) Methods. Enzymol. […], 274-284]. The time course for fibril formation can be described by a sigmoidal curve with the following expression [Nielsen et al. (2001) Biochemistry 40, 6036-6046]; […] Here, F is the ThT fluorescence at the time t. The constant t0 is the time needed to reach 50% of maximum fluorescence. […] Few of those intermediates nucleate to form a template onto which further intermediates may assembly and the fibrillation proceeds. The lag-time corresponds to the interval in which the critical mass of nucleus is built up and the apparent rate constant is the rate with which the fibril itself is formed. Sample Preparation Samples were prepared freshly before each assay. Each sample composition is described in each example. The pH of the sample was adjusted to the desired value using appropriate amounts of concentrated NaOH and HClO4 or HCl. Thioflavin T was added to the samples from a stock solution in H2O to a final concentration of 1 μM. Sample aliquots of 200 μl were placed in a 96 well microtiter plate (Packard OptiPlate™96, white polystyrene). Usually, four or eight replica of each sample (corresponding to one test condition) were placed in one column of wells. The plate was sealed with Scotch Pad (Qiagen). Incubation and Fluorescence Measurement Incubation at given temperature, shaking and measurement of the ThT fluorescence emission were done in a Fluoroskan Ascent FL fluorescence platereader or Varioskan platereader (Thermo Labsystems). The temperature was adjusted to 37° C. The orbital shaking was adjusted to 960 rpm with an amplitude of 1 mm in all the presented data. Fluorescence measurement was done using excitation through a 444 nm filter and measurement of emission through a 485 nm filter. Each run was initiated by incubating the plate at the assay temperature for 10 min. The plate was measured every 20 minutes for a desired period of time. Between each measurement, the plate was shaken and heated as described. Data Handling The measurement points were saved in Microsoft Excel format for further processing and curve drawing and fitting was performed using GraphPad Prism. The background emission from ThT in the absence of fibrils was negligible. The data points are typically a mean of four or eight samples and shown with standard deviation error bars. Only data obtained in the same experiment (i.e. samples on the same plate) are presented in the same graph ensuring a relative measure of fibrillation between experiments. The data set may be fitted to Eq. […] However, since full sigmodial curves in this case are not always achieved during the measurement time, the degree of fibrillation is expressed as ThT fluorescence tabulated as the mean of the samples and shown with the standard deviation at various time points. Measurement of Initial and Final Concentrations The polypeptide concentration in each of the tested formulations were measured both before application in the ThT fibrillation assay (“Initial”) and after completion of the ThT fibrillation (“After ThT assay”). Concentrations were determined by reverse HPLC methods using a pramlintide standard as a reference. Before measurement after completion 150 μl was collected from each of the replica and transferred to an Eppendorf tube. These were centrifuged at 30000 G for 40 mins. […]

[4] = target: T3, human amylin receptor (membranes from Amylin 3(a)/CRE-luc cells) (Homo sapiens, UniProt O60896+P30988); test: ASSAY (V) binding to the human amylin receptor (SPA, 125I-rat amylin);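 further: competition binding of cell membranes (35 ng/µL) mixed with SPA beads in 384-well plates at 40 µL total volume, read by scintillation counting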
T3 construct: expressed in transfected cells
T3 sequence (P30988 25-474): T2 sequence (P30988 25-474)
T3 sequence (O60896 24-148 partner): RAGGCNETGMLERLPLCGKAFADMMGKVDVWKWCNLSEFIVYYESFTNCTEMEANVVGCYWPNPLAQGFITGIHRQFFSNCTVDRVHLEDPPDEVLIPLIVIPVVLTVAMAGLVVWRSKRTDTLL

[5] = target: T4, human calcitonin receptor (Homo sapiens, UniProt P30988); test: ASSAY (VII) binding to the human calcitonin receptor (SPA, 125I-Calcitonin); settings: read-out: hCTR bind IC50;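 further: cell membranes (35 ng/µL) combined with SPA beads in 40 µL of pH 7.4 Hepes buffer, 384-well format, signal counted on a TopCounter instrument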
T4 construct: expressed in transfected cells
T4 sequence (P30988 25-474): T2 sequence (P30988 25-474)

Ratio hCT/hAmylin funct. ([1]; hCTR funct. EC50 / hAmylin-R funct. EC50): 2.2 | Ratio hCT/hAmylin funct. ([1]; hCTR funct. EC50 divided by hAmylin-R funct. EC50): 2.2 | Ratio hCT/hAmylin funct. ([1]; hCTR funct. EC50 over hAmylin-R funct. EC50): 2.2 | EC50 ([1]; human amylin receptor functional potency, assay (II), read-out: hAmylin-R funct. EC50): 0.213 nM | Ratio hCT/hAmylin funct. ([1]; human functional selectivity: hCTR funct. EC50 / hAmylin-R funct. EC50): 2.2 | EC50 [2]: 0.47 nM | ThT pH 4.0 lag time (h) [3]: 45 h | IC50 ([4]; Table 4, read-out: hAmylin-R bind IC50): 0.264 nM | Ratio hCT/hAmylin binding ([4]; Table 5, selectivity, hCTR bind IC50 / hAmylin-R bind IC50): 1.2 | Ratio hCT/hAmylin binding ([4]; Table 7, human binding selectivity, included for comparison): 1.2 | IC50 [5]: 0.305 nM
SMILES: CC[C@H](C)[C@H](NC(=O)[C@H](C)NC(=O)CNC(=O)[C@H](Cc1ccccc1)NC(=O)[C@H](CC(N)=O)NC(=O)[C@@H]1CCCN1C(=O)[C@H](CO)NC(=O)[C@H](CO)NC(=O)[C@H](Cc1c[nH]cn1)NC(=O)[C@H](CCCNC(=N)N)NC(=O)[C@H](CC(C)C)NC(=O)[C@H](Cc1ccccc1)NC(=O)[C@H](CCC(=O)O)NC(=O)[C@H](C)NC(=O)[C@H](CC(C)C)NC(=O)[C@H](CCCNC(=N)N)NC(=O)[C@H](CCC(N)=O)NC(=O)[C@@H](NC(=O)[C@H](C)NC(=O)[C@@H]1CSSC[C@H](NC(=O)[C@@H](N)CCCCNC(=O)CC[C@H](NC(=O)CC[C@H](NC(=O)CCCCCCCCCCCCCCCCCCC(=O)O)C(=O)O)C(=O)O)C(=O)N[C@@H](CC(N)=O)C(=O)N[C@@H]([C@@H](C)O)C(=O)N[C@@H](C)C(=O)N[C@@H]([C@@H](C)O)C(=O)N1)[C@@H](C)O)C(=O)N1CCC[C@H]1C(=O)N[C@@H](CO)C(=O)N[C@@H](CO)C(=O)N[C@H](C(=O)N[C@@H](CC(N)=O)C(=O)N[C@H](C(=O)NCC(=O)N[C@@H](CO)C(=O)N[C@@H](CC(N)=O)C(=O)N[C@H](C(=O)N1CCC[C@H]1C(N)=O)[C@@H](C)O)C(C)C)[C@@H](C)O [Example 13] (H-K([γGlu-γGlu-C20 diacid])CNTATCATQRLAEFLRHSSPNFGAIPSSTNVGSNTP-NH2; disulfide 2-7; N-terminus assumed)
